# Experimental data as given in patent US9402821B2, “Methods and pharmaceutical compositions for treatment of cystic fibrosis” (INSERM (Institut National de la sante et de la Recherche …, priority 2012, dated 2016).
# Entries after “also recorded” stand apart in the source; their conditions may differ.
# Columns and labels:
# [1] = system: NF-κB transcriptional activity; assay: NF-κB firefly luciferase reporter assay, TNFα-stimulated cells; type: cell-based; conditions: TNFα 10 ng/ml; BEAS-2B and HeLa cells with wt or deltaF508-CFTR (FIGS. 1A, B)
# Procedure: All cells were transiently transfected by NF-κB firefly luciferase reporter and renilla luciferase reference. A. HeLa control cells (Ctr) were pre-treated with diluent (0.5%) or different doses of sulindac for 1 h and stimulated for 1 h with 10 ng/ml TNFα. After removal of TNFα, cells were incubated for 4 h with sulindac. Luciferase activity was analysed in protein extract. The NF-κB transcriptional activity in cells treated with sulindac+TNFα was expressed in percent of diluent+TNFα. B. Hela cells Wt, DF508 and Ctr were pre-treated with diluent (0.5%), ibuprofen (500 μM) or sulindac (500 μM) for 1 h and stimulated for 1 h with […] TNFα. After removal of TNFα, cells were incubated for 4 h with pharmacological treatment. The NF-κB transcriptional activity in cells treated with ibuprofen+TNFα and sulindac+TNFα was expressed in percent of diluent+TNFα. Results of at least three independent experiments, means±SEM. Unilateral paired t test: * p<0.02
# All cells were pre-treated with diluent (0.5%), sulindac ([…]) or sulindac sulfone (250 μM) for 1 h and stimulated for 1 h with 10 ng/ml TNFα. […]
# Plasmid Constructs and Transient Transfection To assay the transcriptional activity of NF-κB, pNF-κBLuc, a luciferase reporter plasmid containing five sequential NF-κB binding sites upstream of a minimum promoter element, NF-κB-Luc (Stratagene), was used. Transcriptional activity of the IL-8 promoter was evaluated with reporter constructs consisting of the IL-8 promoter (−133 bp from the transcription start site) fused to the Luciferase gene, kindly provided by Naofumi Mukaida. […]
# Cells were lysed with the Passive Lysis Buffer (Promega), and luciferase activity in the cellular extracts was determined by the Dual Luciferase Assay System (Promega) using a luminometer (Tristar; Berthold). The results were normalized to those obtained with the Renilla luciferase reference plasmid used to control the transfection efficiency, and the values were expressed as luminescence intensity (Luciferase/Renilla). […]
# The transcriptional activity of NF-κB and IL-8 promoter was measured as described before. […]
# [2] = system: IL-8 secretion; assay: IL-8 release into supernatant of cell cultures; type: cell-based; conditions: TNFα; Beas2B, Calu-3 and heterologous HeLa systems (FIG. 2C)
# Procedure: Cells were transiently transfected by the short IL-8 promoter-firefly luciferase reporter and renilla luciferase reference and inflammation was induced by 10 ng/ml TNFα for 1 h. A. HeLa cells were pre-treated with diluent or different doses of sulindac 1 h before inflammation induction and 4 h after. IL-8 promoter activity in cells treated with sulindac+TNFα was expressed in percent of diluent+TNFα. B. After treatment, HeLa Ctr cells were lysed with TRIzol (Invitrogen). Total RNA was extracted, and 1 μg of total RNA was reverse transcribed with a reverse transcription kit. IL-8 mRNA expression was quantified by real-time quantitative PCR (qPCR). The comparative threshold cycle (CT) method was used for relative quantification of PCR products after IL-8 was normalised to TBP (ΔCt=CtIL-8−CtTBP). IL-8 mRNA data in treated samples were expressed in fold changes over controls: fold changetreated sample=2^−ΔΔCt (with ΔΔCt=ΔCtreated sample−ΔCtcontrol). C After treatment, IL-8 in supernatant was measured by ELISA. The IL-8 stimulation of cells treated with test drug +TNFα were expressed as fold compared to drug −TNFα. […]
# IL-8 secretion into the supernatant of cells cultures was measured with the IMMULITE 1000 Automated Analyser (Diagnostic Products Corp) and the commercially available Immulite chemiluminescent enzyme immunometric assays (Immulite®) according to the manufacturer's instructions.
# [3] = system: C57BL/6J mice; assay: LPS-induced lung inflammation mouse model, chemokines in BAL fluid by ELISA; type: in vivo; conditions: sulindac 40 mg/kg i.p. 1 h before intratracheal LPS 5 mg/kg
# Procedure: A. Protocol for lung inflammation mouse models. Lung inflammation was induced by two intra tracheal instillation of LPS (5 mg/kg), 24 h and 6 h prior sacrifice. Sulindac (40 mg/kg) or diluents were administered by intraperitoneal injection 1 h before LPS instillation. B. Mouse macrophage inflammatory protein (MIP-2) was monitored in BAL fluid by ELISA assay. LPS-stimulated MIP-2 production was inhibited by sulindac.
# Male C57BL/6J mice (8-10 wk old) were treated by intraperitoneal (IP) injection of sulindac (40 mg/kg) or vehicle one hour before the time of endotoxin administration which caused lung injury. Lung inflammation was induced by LPS from E. coli (Sigma) prepared in saline and administered by injection intra-tracheal. In order to track at a single time point after LPS challenge both the early humoral and the late cell infiltrating components of the inflammatory response, a volume of 50 μl LPS solution (5 mg/kg) was administered at two consecutive doses with a 18 h interval between doses. This challenge method enables to track both cytokine and cellular responses to induction of inflammation. […] The chemokines keratinocyte chemoattractant (KC) and mouse macrophage inflammatory protein (MIP-2) were monitored in BAL fluid following the corresponding manufacturers' protocols using a standard sandwich enzyme-linked immune absorbent assay (ELISA, R&D Systems).
smiles,measurement,setting,value
"CC1=C(CC(=O)O)c2cc(F)ccc2/C1=C\c1ccc([S+](C)[O-])cc1 (stereo not shown) [sulindac, (Z)-5-fluoro-2-methyl-1-[p-(methylsulfinyl)benzylidene]-indene-3-acetic acid]",transcriptional activity of NF-κB,[1],inhibits transcriptional activity of NF-κB
same,IL-8 secretion,[2],decrease of IL-8 secretion
same,KC (keratinocyte-derived chemokine) in BAL fluid,[3],decreased the secretion of KC and MIP-2
same,MIP-2 in BAL fluid,[3],inhibited; also recorded: decreased the secretion of KC and MIP-2
